Data published in US12331040B2 (Karyopharm Therapeutics Inc., priority 2013, dated 2025).
Read-outs that look alike come from different tables or passages of the source.

Assays:
MS751 cells = test: MTT cell proliferation assay; type: cell-based; settings: Homo sapiens
Method in brief: (§1)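 Cytotoxicity was measured by MTT: OD490 of the solubilized formazan after roughly 4 h with MTT reagent, reported as mean percent inhibition relative to the negative control. Test compounds covered eight concentrations between 1 nM and 30 μM, added to 5,000–10,000 cells per well that had attached overnight.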

3T3 cells = test: MTT cell proliferation assay; type: cell-based; settings: Mus musculus
Method in brief: as §1

Z138 cells = test: MTT cell proliferation assay; type: cell-based; settings: Homo sapiens
Method in brief: as §1

Molt-4 xenografts = test: Molt-4 T-ALL xenograft in SCID mice; type: in vivo, mouse; settings: 100 mg/kg PO twice daily (BID)
Procedure: In this study, the impact of Compounds 667 and 728 on tumor growth was tested using the Molt-4 T-ALL cancer xenograft model in SCID mice. MOLT-4 (CRL-1582) acute lymphoblastic leukemia cells were obtained from ATCC. These cells were grown in RPMI-1640 medium supplemented with 10% fetal bovine serum, 1% penicillin and streptomycin. Cells were sub-cultured by transferring floating cells to a new flask and trypsinizing adherent cells before subculturing at a ratio of 1:4. Molt-4 cells were harvested by centrifugation and counted using a hemocytometer. Cells were resuspended in PBS at a 5×10^7 cells per mL. Cells were placed on ice and mixed with an equal volume of Matrigel (BD Biosciences CB-40234). This mixture was kept on ice and injected into the left flank of mice in a volume of 0.2 mL, equivalent to 5×10^6 cells per mouse. Twenty-four (24) CB-17 SCID mice were inoculated subcutaneously in the left flank with the Molt-4 cells. Treatment was initiated when the tumors reached a mean volume of approximately 100 mm^3. Mice were allocated to three (3) groups of eight (8) mice. Mice were treated with vehicle, Compound 667 or Compound 728. Compounds 667 and 728 (100 mg/kg) were given orally (PO) twice daily (BID) beginning on Day 1. Animal weights and conditions were recorded daily, and tumors were measured on Mondays, Wednesdays and Fridays.

MM1S cells = test: MTT cell proliferation assay; type: cell-based; settings: Homo sapiens, MM1.S
Procedure: (§2) The MTT cell proliferation assay was used to study the cytotoxic properties of the compounds. The assay was performed according to the method described by Roche Molecular Biochemicals, with minor modifications. The assay is based on the cleavage of the tetrazolium salt, MTT, in the presence of an electron-coupling reagent. The water-insoluble formazan salt produced must be solubilized in an additional step. Cells grown in a 96-well tissue culture plate were incubated with the MTT solution for approximately 4 hours. After this incubation period, a water-insoluble formazan dye formed. After solubilization, the formazan dye was quantitated using a scanning multi-well spectrophotometer (ELISA reader). […] The cells were seeded at 5,000-10,000 cells in each well of 96-well plate in 100 μL of fresh culture medium and were allowed to attach overnight. The stock solutions of the compounds were diluted in 100 μL cell culture medium to obtain eight concentrations of each test compound, ranging from 1 nM to 30 μM. […] All optical densities were measured at 490 nm using a Vmax Kinetic Microplate Reader (Molecular Devices). In most cases, the assay was performed in duplicate and the results were presented as a mean percent inhibition to the negative control±SE. The following formula was used to calculate the percent of inhibition: Inhibition (%)=(1−(ODo/OD))×100.
(§3) The M24 cell line is derived from human melanoma cells. The U2OS cell line is a human osteosarcoma cell line expressing wild type p53 and Rb, but lacking p16. The MM1S cell line is a multiple myeloma cell line; the parent cell line, MM.1, was established from peripheral blood of a multiple myeloma patient who had become resistant to steroid-based therapy. The RPMI8226 cell line is derived from human B lymphocyte cells. NHDF cells are normal human dermal fibroblast cells. The MRC-5 cell line is derived from normal lung tissue of a fetus. The PC3 cell line is a human prostate cancer cell line. The DU-145 cell line is a human prostate cancer cell line. The MDA-MB-231 cell line is a human breast adenocarcinoma cell line. The MDA-MB-468 cell line is a human breast carcinoma cell line. HL-60 cells are human promyelocytic leukemia cells. Hep G2 cells are human hepatocellular carcinoma cells. HEP 3B cells are human hepatocellular carcinoma cells. The DLD-1 cell line is a colorectal adenocarcinoma cell line. The HCT-15 cell line is a human colon carcinoma cell line. The Colo-205 cell line is derived from a human adenocarcinoma of the colon. The LoVo cell line is a human colon adenocarcinoma cell line.

HL-60 cells = test: MTT cell proliferation assay; type: cell-based; settings: Homo sapiens
Procedure: as §2, §3

RPMI8226 cells = test: MTT cell proliferation assay; type: cell-based; settings: Homo sapiens, RPMI-8226
Procedure: as §2, §3

MDA-MB-468 tumors = test: Antibody staining of resected MDA-MB-468 tumors from treated mice; type: in vivo, mouse; settings: mice bearing MDA-MB-468 tumors; 30 mg/kg orally every day for three weeks
Procedure: Mice bearing MDA-MB-468 tumors were treated for three weeks with 30 mg/kg Compound 525 orally every day. Tumors were resected from the mice and fixed in buffered formalin and put into paraffin blocks. The blocks were sectioned and stained with antibodies against Ki67, Apotag, c-Myc, p-S473-Akt1 or p-S450-Akt1. The cells were imaged with a Nikon microscope.

MDA-MB-231 cells = test: MTT cell proliferation assay; type: cell-based; settings: Homo sapiens; MDA-MB-231 cell line; read-out: MTT Assay IC50, MDA-MB-231
Procedure: as §2, §3

[1] = MS751, MS751 cells, approximately 64-72 hours incubation, read-out: MTT Assay IC50, MS-751
[2] = NIH3T3, approximately 64-72 hours incubation, read-out: MTT Assay IC50, 3T3
[3] = Z-138, Z138 cells, approximately 64-72 hours incubation, read-out: MTT Assay IC50, Z-138
[4] = MS751, MS751 cells, approximately 64-72 hours incubation, read-out: MTT Assay IC50 MS-751
[5] = NIH3T3, approximately 64-72 hours incubation, read-out: MTT Assay IC50 3T3
[6] = Z-138, Z138 cells, approximately 64-72 hours incubation, read-out: MTT Assay IC50 Z-138

Structure (SMILES) | IC50 (MS751 cells; [1]) [µM] | IC50 (3T3 cells; [2]) [µM] | IC50 (Z138 cells; [3]) [µM] | IC50 (MS751 cells; [4]) [µM] | IC50 (3T3 cells; [5]) [µM] | IC50 (Z138 cells; [6]) [µM] | also measured
Nc1ccc(/C=C/C(=O)NCc2cc3cc(-c4ccc(C(=S)N5CCC(F)(F)CC5)cn4)cc(C(F)(F)F)c3o2)cn1 [Compound 667, (E)-3-(6-aminopyridin-3-yl)-N-((5-(5-(4,4-difluoropiperidine-1-carbonothioyl)pyridin-2-yl)-7-(trifluoromethyl)benzofuran-2-yl)methyl)acrylamide] | < 0.1 | > 10 | < 0.1 | – | – | – | median tumor volume of Molt-4 xenografts (as a percentage of pre-dose tumor volume) (Molt-4 xenografts): tumor growth inhibition
Nc1ccc(/C=C/C(=O)NCc2cc3cc(-c4ccc(C(=O)N5CC[C@H](F)C5)cc4)cc(C(F)(F)F)c3o2)cn1 [Compound 525, (S,E)-3-(6-aminopyridin-3-yl)-N-((5-(4-(3-fluoropyrrolidine-1-carbonyl)phenyl)-7-(trifluoromethyl)benzofuran-2-yl)methyl)acrylamide] | – | – | – | 0.1 to 5 | > 10 | 0.1 to 5 | IC50 (MM1S cells; MM1S cell line, read-out: MTT Assay IC50, MM1S): 0.1 to 5 µM; IC50 (MM1S cells; MM1S cells, 72-hour MTT, read-out: MM1S MTT IC50): 0.31 µM; IC50 (HL-60 cells; HL-60 cell line, read-out: MTT Assay IC50, HL-60): 0.1 to 5 µM; IC50 (HL-60 cells; HL-60 cells, 72-hour MTT, read-out: HL-60 MTT IC50): 1.06 µM; IC50 (RPMI8226 cells; RPMI8226 cell line, read-out: MTT Assay IC50, RPMI8226): 0.1 to 5 µM; IC50 (RPMI8226 cells; RPMI8226 cells, 72-hour MTT, read-out: RPMI8226 MTT IC50): 0.43 µM; IC50 (MS751 cells; MS751, 72 h, MS751 cells, 72-hour MTT, read-out: MS751 MTT IC50): 0.3 µM; IC50 (3T3 cells; NIH3T3, 72-hour MTT, read-out: 3T3 MTT IC50): > 10 µM; IC50 (Z138 cells; Z-138, 72 h, Z-138 cells, 72-hour MTT, read-out: Z-138 MTT IC50): 0.1 µM; PAK4 pathway signaling through Akt (phospho-Akt1) in tumors (MDA-MB-468 tumors): overall reductions; apoptosis (Apotag) in tumors (MDA-MB-468 tumors): increase; c-Myc in tumors (MDA-MB-468 tumors): overall reductions; proliferation (Ki67) in tumors (MDA-MB-468 tumors): reduction
CC1(C)COCCN1C(=O)c1ccc(-c2cc(C(F)(F)F)c3oc(CNC(=O)/C=C/c4ccc(N)nc4)cc3c2)cc1 [Compound 517, (E)-3-(6-aminopyridin-3-yl)-N-((5-(4-(3,3-dimethylmorpholine-4-carbonyl)phenyl)-7-(trifluoromethyl)benzofuran-2-yl)methyl)acrylamide] | – | – | – | 0.1 to 5 | > 10 | 0.1 to 5 | IC50 (MDA-MB-231 cells): 0.1 to 5 µM
Nc1ccc(/C=C/C(=O)NCc2cc3cc(-c4ccc(C(=O)N5CCOCC5)cn4)cc(C(F)(F)F)c3o2)cn1 [Compound 521, (E)-3-(6-aminopyridin-3-yl)-N-((5-(5-(morpholine-4-carbonyl)pyridin-2-yl)-7-(trifluoromethyl)benzofuran-2-yl)methyl)acrylamide] | – | – | – | < 0.1 | > 10 | < 0.1 | IC50 (MDA-MB-231 cells): 0.1 to 5 µM
Nc1ccc(/C=C/C(=O)NCc2cc3cc(-c4ccc(C(=O)N5CC[C@@H](F)C5)cc4)cc(Cl)c3o2)cn1 [Compound 523, (R,E)-3-(6-aminopyridin-3-yl)-N-((7-chloro-5-(4-(3-fluoropyrrolidine-1-carbonyl)phenyl)benzofuran-2-yl)methyl)acrylamide] | – | – | – | > 10 | > 10 | > 10 | –
O=C(/C=C/c1cccnc1)NCc1cc2cc(-c3ccc(C(=O)N4CCC(F)(F)CC4)cc3)cc(-c3cccc(F)c3)c2o1 [Compound 727, (E)-N-((5-(4-(4,4-difluoropiperidine-1-carbonyl)phenyl)-7-(3-fluorophenyl)benzofuran-2-yl)methyl)-3-(pyridin-3-yl)acrylamide] | < 0.1 | < 0.1 | < 0.1 | – | – | – | –
NC(=O)c1ccc(-c2cc(Cl)c3oc(CNC(=O)/C=C/c4ccc(N)nc4)cc3c2)cc1 [Compound 506, (E)-4-(2-((3-(6-aminopyridin-3-yl)acrylamido)methyl)-7-chlorobenzofuran-5-yl)benzamide] | – | – | – | 5 to 10 | > 10 | 0.1 to 5 | –
Nc1ccc(/C=C/C(=O)NCc2cc3cc(-c4ccc(C(=O)N5CCC(F)(F)CC5)cc4)cc(-c4ccc(F)cc4Cl)c3o2)cn1 [Compound 738, (E)-3-(6-aminopyridin-3-yl)-N-((7-(2-chloro-4-fluorophenyl)-5-(4-(4,4-difluoropiperidine-1-carbonyl)phenyl)benzofuran-2-yl)methyl)acrylamide] | < 0.1 | 0.1 to 5 | < 0.1 | – | – | – | –
Nc1ccc(/C=C/C(=O)NCc2cc3cc(-c4ccc(C(=O)N5CCC(O)(C(F)(F)F)CC5)cc4)cc(C(F)(F)F)c3o2)cn1 [Compound 609, (E)-3-(6-aminopyridin-3-yl)-N-((5-(4-(4-hydroxy-4-(trifluoromethyl)piperidine-1-carbonyl)phenyl)-7-(trifluoromethyl)benzofuran-2-yl)methyl)acrylamide] | – | – | – | 0.1 to 5 | > 10 | 0.1 to 5 | –
O=C(/C=C/c1cccnc1)NCc1cc2cc(-c3ccc(S(=O)(=O)N4CCC(F)(F)CC4)cc3)cc(C(F)(F)F)c2o1 [Compound 680, (E)-N-((5-(4-((4,4-difluoropiperidin-1-yl)sulfonyl)phenyl)-7-(trifluoromethyl)benzofuran-2-yl)methyl)-3-(pyridin-3-yl)acrylamide] | 0.1 to 5 | > 10 | 0.1 to 5 | – | – | – | –
Nc1ccc(/C=C/C(=O)NCc2cc3cc(-c4ccc(NC(=O)N5CCOCC5)cc4)cc(Cl)c3o2)cn1 [Compound 582, (E)-N-(4-(2-((3-(6-aminopyridin-3-yl)acrylamido)methyl)-7-chlorobenzofuran-5-yl)phenyl)morpholine-4-carboxamide] | – | – | – | 5 to 10 | > 10 | 5 to 10 | –
Nc1ccc(/C=C/C(=O)NCc2cc3cc(-c4ccc(C(=O)N5CCC(F)(F)CC5)cc4)cc(C(F)(F)F)c3o2)cn1 [Compound 566, (E)-3-(6-aminopyridin-3-yl)-N-((5-(4-(4,4-difluoropiperidine-1-carbonyl)phenyl)-7-(trifluoromethyl)benzofuran-2-yl)methyl)acrylamide] | – | – | – | 0.1 to 5 | > 10 | 0.1 to 5 | –
